Where two headings read alike, the source gives them in different places. Residues, ends and D or L forms follow the SMILES beside them.
Assays:
[1] = inhalation, mice; for Tmax: relative to end of inhalation
[2] = mouse IP
in vivo = settings: mouse, ip, Cross species PK, concentration (Fig 6 source data)
[3] = 7-day DRF inhalation toxicity; settings: for AUC(0-t) / Cmax: Mouse inhalation, TK dose 20 mg/kg
[4] = Dose range finding & MTD iv toxicity
[5] = test system: E. coli (AID#172 & ATCC 25922); settings: E. coli ATCC 25922; quality control range printed beside agar dilution MIC; cited from earlier work
Source text: Supplement 41467_2020_16950_MOESM9_ESM.xlsx, sheet "Supp table 9" | column: Agar (Noble) Dilution MIC Results for AA139 and Comparators

[6] = cynomolgus monkey, in vivo, iv, 20 mg/kg

With `CC(C)[C@@H]1NC(=O)[C@H](Cc2ccc(O)cc2)NC(=O)[C@H](Cc2c[nH]c3ccccc23)NC(=O)[C@@H](NC(=O)[C@H](Cc2ccccc2)NC(=O)CN)CSSC[C@@H](C(=O)N[C@@H](CC(N)=O)C(=O)O)NC(=O)[C@H](CCCNC(=N)N)NC(=O)[C@H](CCCNC(=N)N)NC(=O)[C@H](Cc2ccc(O)cc2)NC(=O)[C@@H]2CSSC[C@H](NC1=O)C(=O)N[C@@H](C)C(=O)N[C@@H](CCCNC(=N)N)C(=O)N[C@@H](CCCNC(=N)N)C(=O)N[C@@H](CC(N)=O)C(=O)NCC(=O)N[C@@H](C)C(=O)N[C@@H](CCCNC(=N)N)C(=O)N[C@@H](C(C)C)C(=O)N2` [AA139] (HELM PEPTIDE1{G.F.C.W.Y.V.C.A.R.R.N.G.A.R.V.C.Y.R.R.C.N}$PEPTIDE1,PEPTIDE1,3:R3-20:R3|PEPTIDE1,PEPTIDE1,7:R3-16:R3$$$V2.0) the “AUC(0-t)” value ([1]; ELF, Day 1, 5 mg kg-1/day) was 27,250 ng*h mL-1, the Cmax ([1]; ELF, Day 1, 5 mg kg-1/day) was 14,750 ng mL-1 and the Tmax ([1]; ELF, Day 1, 5 mg kg-1/day) was 30 min. For the same compound, the Cmax ([1]; ELF, Day 1, 20 mg kg-1/day) was 8,245 ng mL-1, the Tmax ([1]; ELF, Day 1, 20 mg kg-1/day) was 78 min and the “AUC(0-t)” value ([1]; ELF, Day 1, 40 mg kg-1/day) was 63,300 ng*h mL-1. The Cmax ([1]; ELF, Day 1, 40 mg kg-1/day) was 36,300 ng mL-1, the Tmax ([1]; ELF, Day 1, 40 mg kg-1/day) was 0 min and the “AUC(0-t)” value ([1]; ELF, Day 7, 5 mg kg-1/day) was 58,650 ng*h mL-1. The Cmax ([1]; ELF, Day 7, 5 mg kg-1/day) was 21,100 ng mL-1, the Tmax ([1]; ELF, Day 7, 5 mg kg-1/day) was 18 min and the Cmax ([1]; ELF, Day 7, 20 mg kg-1/day) was 42,350 ng mL-1. The Tmax ([1]; ELF, Day 7, 20 mg kg-1/day) was 0 min, the “AUC(0-t)” value ([1]; Lung (ng/g), Day 1, 5 mg kg-1/day) was 8,585 ng*h mL-1 and the “AUC(0-t)” value ([1]; Lung (ng/g), Day 1, 20 mg kg-1/day) was 14,411 ng*h mL-1. The “AUC(0-t)” value ([1]; Lung (ng/g), Day 1, 40 mg kg-1/day) was 7,002 ng*h mL-1, the “AUC(0-t)” value ([1]; Lung (ng/g), Day 7, 5 mg kg-1/day) was 11,802 ng*h mL-1 and the “AUC(0-t)” value ([1]; Lung (ng/g), Day 7, 20 mg kg-1/day) was 66,791 ng*h mL-1. The Cmax ([1]; Lung, Day 1, 5 mg kg-1/day) was 3,935 ng/g, the Tmax ([1]; Lung, Day 1, 5 mg kg-1/day) was 0 min and the Cmax ([1]; Lung, Day 1, 20 mg kg-1/day) was 7,691 ng/g. The Tmax ([1]; Lung, Day 1, 20 mg kg-1/day) was 0 min, the Cmax ([1]; Lung, Day 1, 40 mg kg-1/day) was 16,162 ng/g and the Tmax ([1]; Lung, Day 1, 40 mg kg-1/day) was 0 min. The Cmax ([1]; Lung, Day 7, 5 mg kg-1/day) was 4,228 ng/g, the Tmax ([1]; Lung, Day 7, 5 mg kg-1/day) was 0 min and the Cmax ([1]; Lung, Day 7, 20 mg kg-1/day) was 15,133 ng/g. It also gave a Tmax ([1]; Lung, Day 7, 20 mg kg-1/day) of 30 min, a Tmax ([1]; Plasma, Day 7, 5 mg kg-1/day) of 18 min and a Tmax ([1]; Plasma, Day 7, 20 mg kg-1/day) of 0 min. For the same compound, the “Cross species PK, concentration (Fig 6 source data)” value (“Cross species PK, concentration” below) ([2]; time 0.08 h, replicate 1) was 6190, the “Cross species PK, concentration” value ([2]; time 0.08 h, replicate 3) was 3520 and the “Cross species PK, concentration” value ([2]; time 0.5 h, replicate 1) was 5370. For the same compound, the “Cross species PK, concentration” value ([2]; time 0.5 h, replicate 2) was 4790, the “Cross species PK, concentration” value ([2]; time 0.5 h, replicate 3) was 6580 and the level at 1 h (in vivo; replicate 1) was 5200 ng/mL. The level at 1 h (in vivo; replicate 2) was 5250 ng/mL, the level at 1 h (in vivo; replicate 3) was 5230 ng/mL and the level at 2 h (in vivo; replicate 1) was 4240 ng/mL. The level at 2 h (in vivo; replicate 2) was 4550 ng/mL, the level at 2 h (in vivo; replicate 3) was 4140 ng/mL and the level at 4 h (in vivo; replicate 1) was 1820 ng/mL. For the same compound, the level at 4 h (in vivo; replicate 2) was 1560 ng/mL, the level at 4 h (in vivo; replicate 3) was 1370 ng/mL and the level at 8 h (in vivo; replicate 1) was 570 ng/mL. The level at 8 h (in vivo; replicate 2) was 472 ng/mL, the level at 8 h (in vivo; replicate 3) was 682 ng/mL and the “AUC(0-t)” value ([3]; Day 1 ELF) was 39800 ng·h/mL. For the same compound, the Cmax ([3]; Day 1 ELF) was 8200 ng/mL, the “AUC(0-t)” value ([3]; Day 7 ELF) was 137000 ng·h/mL and the Cmax ([3]; Day 7 ELF) was 42400 ng/mL. The “NOAEL in mice, aerosol inhalation” value ([3]; aerosol inhalation over 7 days) was 20 mg kg^−1 per day, the NOAEL at 168 h ([3]; mouse, in vivo, inhaled or intranasal) was 20 mg/kg and the AUC(0-t) ([3]; mouse, plasma, inhaled or intranasal, 20 mg/kg, AUC 0-t, Day 1 Plasma) was 2600 ng·h/mL. For the same compound, the AUC(0-t) ([3]; mouse, plasma, inhaled or intranasal, 20 mg/kg, AUC 0-t, Day 7 Plasma) was 1400 ng·h/mL, the Cmax ([3]; mouse, plasma, inhaled or intranasal, 20 mg/kg, Cmax, Day 1 Plasma) was 950 ng/mL and the Cmax ([3]; mouse, plasma, inhaled or intranasal, 20 mg/kg, Cmax, Day 7 Plasma) was 470 ng/mL. The AUC(0-inf) [4, 6] was 80300 ng·h/mL, the Cmax [4, 6] was 15800 ng/mL and the NOAEL in monkeys ([4]; i.v. over 2 h QD or BID) was 15 mg kg^−1 per day.
For `C[C@H]1COc2c(N3CCN(C)CC3)c(F)cc3c(=O)c(C(=O)O)cn1c23` [LEV, levofloxacin, reference compound], the “MIC QC range” value [5] is listed as 8 to 60 ng/mL.
